Values quoted from earlier work, collected in patent US20080166330A1, “Bacterial Compositions For Prevention Or Treatment Of Atherosclerotic Disorders” (priority 2004, published 2008).

Test system: anti-Chlamydia abzymes
Conditions: general statement of the description, no test details

## CC[C@H]1OC(=O)[C@H](C)[C@@H](O[C@H]2C[C@@](C)(OC)[C@@H](O)[C@H](C)O2)[C@H](C)[C@@H](O[C@@H]2O[C@H](C)C[C@H](N(C)C)[C@H]2O)[C@](C)(O)C[C@@H](C)CN(C)[C@H](C)[C@@H](O)[C@]1(C)O [azithromycin]
  inhibition of abzyme activity: inhibit abzyme activity
